Measurements published in patent publication US4492694A, “Indolylglycyl cephalosporin derivatives” (Eli Lilly and Company, priority 1983, dated 1985).
≈ marks a conversion by molar mass, not a printed value. Structures can show the parent of a compound that is named as a salt. Where two headings read alike, the source gives them in different places.

Tests used:
Staph. aureus = assay: Agar dilution MIC; assay type: cell-based; settings: Staphylococcus aureus
Salmonella = assay: Agar dilution MIC; assay type: cell-based
Excerpt: (§1) A typical and preferred compound provided by this invention is 7-(3-indolylglycylamido)-3-methyl-3-cephem-4-carboxylic acid, the compound illustrated in Example 2. The antibacterial activity of this compound and others of the invention has been determined in standard in vitro agar dilution assays against a variety of gram positive and gram negative microorganisms. The following Table presents typical minimum inhibitory concentrations (MIC's) in μg/ml for several compounds of the invention when evaluated against the indicated microorganisms. MIC's for several known compounds are also presented for comparison.

Klebsiella = assay: Agar dilution MIC; assay type: cell-based
Enterobacter = assay: Agar dilution MIC; assay type: cell-based; settings: for MIC: Enterobacter
Staph. epi = assay: Agar dilution MIC; assay type: cell-based; settings: for Agar Dilution MIC: strain EPI2
Excerpt: as §1

Strep. A = assay: Agar dilution MIC; assay type: cell-based; settings: strain C203
Strep PN = assay: Agar dilution MIC; assay type: cell-based; settings: strain PARK
Strep. D = assay: Agar dilution MIC; assay type: cell-based; settings: read-out: Agar Dilution MIC
E. coli = assay: Agar dilution MIC; assay type: cell-based; settings: Escherichia coli
[1] = Pharmacokinetics, plasma concentration after intravenous dose; assay type: in vivo; settings: rat, rats, 20 mg/kg
Protocol: (§2) For example, when 7-(3-indolylglycylamido)-3-methyl-3-cephem-4-carboxylic acid was administered to rats at an intravenous dose of 20 mg/kg, the plasma concentration after one hour was 15.0 μg/ml, and after four hours, 6.0 μg/ml. About 60% of the above compound was recovered in the urine of rats following a 20 mg/kg subcutaneous dose. Less than 5% was recovered from the bile.

[2] = Recovery in urine and bile after subcutaneous dose; assay type: in vivo; settings: rat, sc, rats, 20 mg/kg
Protocol: as §2

Shig. sonn. = assay: Agar dilution MIC; assay type: cell-based; settings: strain N9
[3] = strain X1.1, read-out: Agar Dilution MIC
[4] = read-out: Agar Dilution MIC, strain X514
[5] = strain 1335, read-out: Agar Dilution MIC
[6] = strain X68, read-out: Agar Dilution MIC
[7] = read-out: Agar Dilution MIC, strain S13E
[8] = strain X400, read-out: Agar Dilution MIC
[9] = strain EPI1, read-out: Agar Dilution MIC
[10] = strain X26, read-out: Agar Dilution MIC
[11] = strain V41, read-out: Agar Dilution MIC

For `CC1=C(C(=O)O)N2C(=O)[C@@H](NC(=O)[C@H](N)c3ccccc3)[C@H]2SC1` [Cephalexin, reference compound], the MIC (Staph. aureus; [3]) was 2 µg/mL (≈ 5.76 µM), the MIC (Salmonella; [4]) was 0.6 µg/mL (≈ 1.73 µM) and the MIC (Salmonella; [5]) was 0.25 µg/mL (≈ 0.72 µM). For the same compound, the MIC (Klebsiella; read-out: Agar Dilution MIC) was 2 µg/mL (≈ 5.76 µM), the MIC (Enterobacter; read-out: Agar Dilution MIC, strain C32) was 0.125 µg/mL (≈ 0.36 µM) and the MIC (Enterobacter; read-out: Agar Dilution MIC, strain EB17) was 0.06 µg/mL (≈ 0.173 µM). For the same compound, the MIC (Enterobacter; [6]) was 0.03 µg/mL (≈ 0.0864 µM).
For `N[C@@H](C(=O)N[C@@H]1C(=O)N2C(C(=O)O)=C(Cl)CSC12)c1c[nH]c2ccccc12` (stereo partly drawn) [Ex. 3, D-7-(3-indolylglycylamido)-3-chloro-3-cephem-4-carboxylic acid trifluoroacetate], the MIC (Staph. aureus; read-out: Agar Dilution MIC) was 32 µg/mL, the MIC (Staph. aureus; [7]) was 8 µg/mL and the MIC (Staph. aureus; [3]) was 4 µg/mL. For the same compound, the MIC (Staph. aureus; [8]) was 64 µg/mL, the MIC (Salmonella; [4]) was 16 µg/mL and the MIC (Salmonella; [5]) was 16 µg/mL. For the same compound, the MIC (Staph. epi; read-out: Agar Dilution MIC, strain EPI2) was 32 µg/mL, the MIC (Staph. epi; [9]) was 16 µg/mL and the MIC (Strep. A) was 0.5 µg/mL. For the same compound, the MIC (Strep PN) was 0.25 µg/mL, the MIC (Strep. D; strain 9960) was 16 µg/mL and the MIC (Strep. D; strain X66) was 16 µg/mL. It also gave an MIC (E. coli; strain EC14) of 8 µg/mL, an MIC (E. coli; strain N10) of 16 µg/mL and an MIC (E. coli; strain TEM) of 16 µg/mL. It also gave an MIC (Klebsiella; [10]) of 4 µg/mL, an MIC (Klebsiella; [6]) of 16 µg/mL and an MIC (Enterobacter; [6]) of over 128 µg/mL. For the same compound, the “Agar Dilution MIC” value (Enterobacter; strain C32) was over 128 µg/mL and the “Agar Dilution MIC” value (Enterobacter; strain EB17) was over 128 µg/mL.
For `CC1=C(C(=O)O)N2C(=O)[C@@H](NC(=O)[C@H](N)c3c[nH]c4ccccc34)C2SC1` (stereo partly drawn) [Ex. 2, D-7-(3-Indolylglycylamido)-3-methyl-3-cephem-4-carboxylic acid trifluoroacetate], the MIC (Staph. aureus; [7]) was 32 µg/mL, the MIC (Staph. aureus; [3]) was 4 µg/mL and the MIC (Staph. aureus; [8]) was 64 µg/mL. For the same compound, the MIC (Staph. aureus; [11]) was 8 µg/mL, the MIC (Salmonella; [4]) was 32 µg/mL and the MIC (Salmonella; [5]) was 128 µg/mL. For the same compound, the MIC (Staph. epi; [9]) was 16 µg/mL, the “Agar Dilution MIC” value (Staph. epi) was 16 µg/mL and the MIC (Strep. A) was 0.25 µg/mL. It also gave an MIC (Strep PN) of 0.5 µg/mL, an MIC (Strep. D) of 32 µg/mL and an MIC (Strep. D; strain 9960) of 16 µg/mL. For the same compound, the MIC (E. coli; strain EC14) was 32 µg/mL, the MIC (E. coli; strain N10) was 32 µg/mL and the MIC (E. coli; strain TEM) was 16 µg/mL. For the same compound, the MIC (Klebsiella; [10]) was 16 µg/mL, the MIC (Enterobacter; read-out: Agar Dilution MIC, strain X68) was 32 µg/mL and the MIC (Enterobacter; strain C32, read-out: Agar Dilution MIC) was over 128 µg/mL. For the same compound, the “Agar Dilution MIC” value (Enterobacter; strain EB17) was over 128 µg/mL, the concentration at 4 h ([1]; four hours) was 6000 ng/mL and the concentration at 1 h ([1]; one hour) was 15000 ng/mL. The dose excreted ([2]; bile, read-out: recovered from the bile) was under 5% and the dose excreted ([2]; urine, read-out: recovered in the urine) was about 60%.
`CC1(C)S[C@@H]2[C@H](NC(=O)[C@H](N)c3ccccc3)C(=O)N2[C@H]1C(=O)O` [Ampicillin, reference compound] gave an MIC (Staph. aureus; read-out: Agar Dilution MIC) of 0.125 µg/mL (≈ 0.358 µM), an MIC (Staph. aureus; [11]) of 8 µg/mL (≈ 22.9 µM) and an MIC (Salmonella; [4]) of 1 µg/mL (≈ 2.86 µM). It also gave an MIC (Salmonella; [5]) of 4 µg/mL (≈ 11.4 µM) and an MIC (Enterobacter; [6]) of 8 µg/mL (≈ 22.9 µM).
For `COC1=C(C(=O)O)N2C(=O)[C@@H](NC(=O)[C@H](N)c3c[nH]c4ccccc34)C2SC1` (stereo partly drawn) [Ex. 4, D-7-(3-Indolylglycylamido)-3-methoxy-3-cephem-4-carboxylic acid], the MIC (Staph. aureus; read-out: Agar Dilution MIC) was 32 µg/mL (≈ 79.5 µM), the MIC (Staph. aureus; [7]) was 8 µg/mL (≈ 19.9 µM) and the MIC (Staph. aureus; [3]) was 4 µg/mL (≈ 9.94 µM). For the same compound, the MIC (Staph. aureus; [8]) was 64 µg/mL (≈ 159 µM), the MIC (Salmonella; [4]) was 16 µg/mL (≈ 39.8 µM) and the MIC (Salmonella; [5]) was 32 µg/mL (≈ 79.5 µM). For the same compound, the MIC (Staph. epi; [9]) was 16 µg/mL (≈ 39.8 µM), the “Agar Dilution MIC” value (Staph. epi) was 16 µg/mL and the MIC (Strep. A) was 0.25 µg/mL (≈ 0.621 µM). It also gave an MIC (Strep PN) of 0.5 µg/mL (≈ 1.24 µM), an MIC (Strep. D; strain 9960) of 16 µg/mL (≈ 39.8 µM) and an MIC (Strep. D; strain X66) of 64 µg/mL (≈ 159 µM). It also gave an MIC (E. coli; strain EC14) of 8 µg/mL (≈ 19.9 µM), an MIC (E. coli; strain N10) of 16 µg/mL (≈ 39.8 µM) and an MIC (E. coli; strain TEM) of 32 µg/mL (≈ 79.5 µM). For the same compound, the MIC (Klebsiella; [10]) was 16 µg/mL (≈ 39.8 µM), the MIC (Klebsiella; [6]) was 16 µg/mL (≈ 39.8 µM) and the MIC (Shig. sonn.) was 32 µg/mL (≈ 79.5 µM). For the same compound, the MIC (Enterobacter; [6]) was over 128 µg/mL, the “Agar Dilution MIC” value (Enterobacter; strain C32) was over 128 µg/mL and the “Agar Dilution MIC” value (Enterobacter; strain EB17) was over 128 µg/mL.
